The subject of series [1] is MUTZ-3 cells. In words: Transcriptional profiling (Affymetrix Human Gene 1.0 ST arrays, PCA) after 24 h stimulation. Type of series: cell-based. Conditions: for Potency predicted by Prediction Signature gene expression profile: 200 transcripts, PCA, compared with LLNA potency, Figure 4C.
In series [2] the test system is MUTZ-3 cells. The series can be described thus: Cytotoxicity by propidium iodide, relative viability. As for the experimental part:
A panel of 40 chemical compounds, consisting of 20 sensitizers and 20 non-sensitizers were used for cell stimulations. […] All chemicals were from Sigma-Aldrich, St. Louis, MO, USA. Compounds were dissolved in either dimethyl sulfoxide (DMSO) or distilled water. Prior to stimulations, the cytotoxicity of all compounds was monitored, using propidium iodide (PI) (BD Biosciences, San Diego, CA) using protocol provided by the manufacturer. The relative viability of stimulated cells was calculated as [drawing 1]
For toxic compounds, the concentration yielding 90% relative viability (Rv90) was used. For non-toxic compounds, a concentration of 500 μM was used. For non-toxic compounds that were insoluble at 500 μM in medium, the highest soluble concentration was used. For compounds dissolved in DMSO, the final concentration of DMSO in each well was 0.1%.
The human myeloid leukemia-derived cell line MUTZ-3 (DSMZ, Braunschweig, Germany) was maintained in α-MEM (Thermo Scientific Hyclone, Logan, UT) supplemented with 20% (volume/volume) fetal calf serum (Invitrogen, Carlsbad, CA) and 40 ng/ml rhGM-CSF (Bayer HealthCare Pharmaceuticals, Seattle, WA), as described. Cultures were maintained at 200.000 cells/ml during expansion, with a media change every 3-4 days. No differentiating steps were performed. Instead, the proliferating progenitor MUTZ-3 was used for stimulations, as delivered by the supplier. Prior to each experiment, the cells were immunophenotyped using flow cytometry as a quality control. Cells were seeded in 6-well plates at 200.000 cells/ml. Stock solutions of each compound were prepared in either DMSO or distilled water, and were subsequently diluted so the in-well concentrations corresponded to the Rv90 value, and in-well concentrations of DMSO were 0.1%. Cells were incubated for 24 h at 37°C and 5% CO2. Thereafter, cells were harvested and analyzed by flow cytometry. In parallel, harvested cells were lysed in TRIzol reagent (Invitrogen) and stored at -20°C until RNA extraction. Stimulations with chemicals were performed in three individual experiments, so that triplicates samples were obtained.

A further series relates to mice. Conditions: cited from earlier work.
Series [3] deals with MUTZ-3 cells. The series can be described thus: CD86 cell surface expression by flow cytometry after 24 h stimulation. Conditions: for CD86 surface expression: flow cytometry, Student's t test. Type of series: cell-based, human. As to the method: CD86 is the most extensively studied biomarker for sensitization to date, using e.g. monocyte derived dendritic cells (MoDCs) or human cell lines and their progenitors, such as THP-1, U-937 and KG-1. Thus, as a reference, cell surface expression of CD86 was measured with flow cytometry after 24 h stimulation, using 20 sensitizers and 20 non-sensitizers, as well as vehicle controls (Figure 2). […]. […] Consequently, CD86 cannot classify skin sensitizers, using a system based on MUTZ-3 cells.
No differentiating steps were performed. […] Thereafter, cells were harvested and analyzed by flow cytometry.
All cell surface staining and washing steps were performed in PBS containing 1% BSA (w/v). Cells were incubated with specific mouse mAbs for 15 min at 4°C. The following mAbs were used for flow cytometry: FITC-conjugated CD1a (DakoCytomation, Glostrup, Denmark), CD34, CD86, and HLA-DR (BD Biosciences), PE-conjugated CD14 (DakoCytomation), CD54 and CD80 (BD Biosciences). Mouse IgG1, conjugated to FITC or PE were used as isotype controls (BD Biosciences) and PI was used to assess cell viability. FACSDiva software was used for data acquisition with FACSCanto II instrument (BD Bioscience). 10,000 events were acquired and gates were set based on light scatter properties to exclude debris and nonviable cells. Further data analysis was performed using FCS Express V3 (De Novo Software, Los Angeles, CA).

A further series can be described thus: physchem. Conditions: aqueous buffer, kinetic from dmso stock.
A further series is described as follows: Max solubility in medium. Conditions: aqueous buffer, kinetic from dmso stock.
Where [4] appears, read: 1137 genes, multi-group ANOVA, Figure 3D.
Where [5] appears, read: concentration yielding 90% relative viability, propidium iodide.
[6] abbreviates: sensitizing potency category according to LLNA, ref (14, 15, 45-48).
Setting [7] is: 1010 transcripts, one-way ANOVA, one or more replicate, Figure 3B.

Values after ≈ are worked out from the molar mass of the structure shown. Where two headings read alike, the source gives them in different places.

We go through 25 molecules from paper PMC3176258, “A genomic biomarker signature can predict skin sensitizers using a cell-based in vitro alternative to animal tests” (BMC Genomics, 2011).

Consider `O=[N+]([O-])c1ccc(Cl)c([N+](=O)[O-])c1` [2,4-Dinitrochlorobenzene], for which the “PCA grouping, each individual stimulation” value in the series on MUTZ-3 cells [1] (setting [4]) is recorded as “group together, separate from the negative group”. Besides, the Rv90 with MUTZ-3 cells [2] (setting [5]) was 4 µM. Besides, the Potency entry with mice (mouse, in vivo) is “Extreme [15]”. For the same molecule, the CD86 surface expression entry in the series on MUTZ-3 cells [3] is given as “significantly up-regulated”.

In the series with MUTZ-3 cells [2], `CCCCCCCCCCCCOS(=O)(=O)[O-].[Na+]` [Sodium dodecyl sulphate] came in with a Rv90 of 200 µM.

With `[K+].[K+].[O]=[Cr](=[O])([O-])[O][Cr](=[O])(=[O])[O-]` [Potassium dichromate], the “PCA grouping, each individual stimulation” value in the series with MUTZ-3 cells [1] is “discrete profile”. The Potency entry with mice (mouse, in vivo) was “Extreme [14]”. Besides, in the series on MUTZ-3 cells [3], the CD86 surface expression entry is “significantly up-regulated”.

Consider `OC/C=C/c1ccccc1` [Cinnamic alcohol], for which the “PCA grouping, each individual stimulation” value in the series with MUTZ-3 cells [1] (setting [4]) was “group together, separate from the negative group”. The molecule further yielded a solubility in “physchem” of 500 µM (≈ 67.1 µg/mL). Besides, in the series with mice (setting [6]), the Potency result is “Weak [46]”.

On to `CC1(C)S[C@@H]2[C@H](NC(=O)Cc3ccccc3)C(=O)N2[C@H]1C(=O)O` [Penicillin G], for which, in the series with MUTZ-3 cells [1] (setting [7]), the “PCA grouping, sensitizing vs. non-sensitizing chemicals” value is listed as “grouped together with the control group”.

Take `Clc1ccccc1` [Chlorobenzene]: in the series “Max solubility in medium”, the solubility was found to be 98 µM (≈ 11 µg/mL).

The molecule `O=C/C=C/c1ccccc1` [Cinnamaldehyde] returned a Rv90 in the series on MUTZ-3 cells [2] (setting [5]) of 120 µM. Also, in the series on mice (setting [6]), the Potency entry was “Moderate [47]”. Moreover, the CD86 surface expression entry with MUTZ-3 cells [3] is “significantly up-regulated”.

In the case of `C=CCc1ccc(O)c(OC)c1` [Eugenol], the “PCA grouping, sensitizing vs. non-sensitizing chemicals” value with MUTZ-3 cells [1] (setting [7]) was “grouped together with the control group”. For the same molecule, in the series with MUTZ-3 cells [2] (human, 24 h), the Rv90 came out at 300 µM. Also, the Potency entry in the series on mice (mouse, in vivo) is “Weak [47]”.

For `NCCN` [Ethylendiamine], in the series with MUTZ-3 cells [1], the “Potency predicted by Prediction Signature gene expression profile” value (“Potency predicted” for short) is listed as “grouped together with weak sensitizers”. Besides, in the series with MUTZ-3 cells [1] (setting [7]), the “PCA grouping, sensitizing vs. non-sensitizing chemicals” value is “grouped together with the control group”. The Potency entry in the series on mice (mouse, in vivo) is “Moderate [14]”.

For the molecule `CCCCCCCC(=O)O` [Octanoic acid], in the series with MUTZ-3 cells [1] (setting [7]), the “PCA grouping, sensitizing vs. non-sensitizing chemicals” value is “grouped closely with the sensitizers”.

Take `O=CC=O` [Glyoxal]: the “Potency predicted” value in the series on MUTZ-3 cells [1] was “grouped together with weak sensitizers”. Besides, in the series on MUTZ-3 cells [1] (setting [7]), the “PCA grouping, sensitizing vs. non-sensitizing chemicals” value was “grouped together with the control group”. The same molecule registered a Rv90 in the series on MUTZ-3 cells [2] of 300 µM. Further, the Potency result with mice (mouse, in vivo) is “Moderate [46]”.

In the case of Tween 80, the “PCA grouping, sensitizing vs. non-sensitizing chemicals” value in the series on MUTZ-3 cells [1] (setting [7]) was “grouped closely with the sensitizers”.

For `O=C(O)c1ccc(O)cc1` [p-Hydroxybenzoic acid], the concentration in solution in the series “physchem” (solubility) was 250 µM (≈ 34.5 µg/mL).

Take Isoeugenol: the “PCA grouping, sensitizing vs. non-sensitizing chemicals” value in the series on MUTZ-3 cells [1] (setting [7]) was “grouped together with the control group”.

As for `Nc1ccc(N)cc1` [p-Phenylendiamine], in the series with MUTZ-3 cells [1] (setting [4]), the “PCA grouping, each individual stimulation” value is given as “group together, separate from the negative group”. Also, the Rv90 in the series on MUTZ-3 cells [2] came out at 75 µM. For the same molecule, the Potency result with mice (setting [6]) was “Strong [47]”. In addition, the CD86 surface expression entry in the series on MUTZ-3 cells [3] is “significantly up-regulated”.

As for `Oc1ccccc1` [Phenol], the “PCA grouping, sensitizing vs. non-sensitizing chemicals” value in the series with MUTZ-3 cells [1] is listed as “grouped closely with the sensitizers”.

Consider `C=O` [Formaldehyde], for which the “PCA grouping, each individual stimulation” value in the series on MUTZ-3 cells [1] is on record as “group together, separate from the negative group”. This molecule also registered a Rv90 with MUTZ-3 cells [2] of 80 µM. For the same molecule, in the series with mice (mouse, in vivo), the Potency entry was “Strong [15]”.

`CCCCCCC(C=O)=Cc1ccccc1` [Hexylcinnamic aldehyde]: the “Potency predicted” value in the series with MUTZ-3 cells [1] is “grouped together with weak sensitizers”. For the same molecule, the “PCA grouping, sensitizing vs. non-sensitizing chemicals” value with MUTZ-3 cells [1] (setting [7]) was “grouped together with the control group”. The molecule further yielded a solubility in “physchem” of 32.3 µM (≈ 7 µg/mL). Further, in the series with mice (setting [6]), the Potency result was “Moderate [15]”.

As to `Nc1ccc(N)c([N+](=O)[O-])c1` [2-nitro-1,4-Phenylendiamine], the “PCA grouping, each individual stimulation” value with MUTZ-3 cells [1] (setting [4]) is “group together, separate from the negative group”. The CD86 surface expression result with MUTZ-3 cells [3] was “significantly up-regulated”.

In turn, `O=Cc1ccccc1` [Benzaldehyde] gave a solubility in “physchem” of 250 µM (≈ 26.5 µg/mL).

On to `C=CC(=O)OCCO` [2-Hydroxyethyl acrylate], for which the “Potency predicted” value with MUTZ-3 cells [1] is “showed resemblance to strong and extreme sensitizers”. Further, the “PCA grouping, each individual stimulation” value in the series on MUTZ-3 cells [1] (setting [4]) is “group together, separate from the negative group”. The same molecule displayed a Rv90 in the series with MUTZ-3 cells [2] (setting [5]) of 100 µM. For the same molecule, the CD86 surface expression entry in the series on MUTZ-3 cells [3] is “significantly up-regulated”.

For the molecule `CCO/C=C1\N=C(c2ccccc2)OC1=O` [Oxazolone], the Potency result in the series with mice (mouse, in vivo) was “Extreme [15]”.

In the case of `Nc1ccccc1O` [2-Aminophenol], in the series on MUTZ-3 cells [1], the “PCA grouping, each individual stimulation” value is “group together, separate from the negative group”. In addition, the Rv90 in the series on MUTZ-3 cells [2] (setting [5]) was determined as 100 µM. In addition, the Potency result with mice (mouse, in vivo) was “Strong [46]”. Also, in the series on MUTZ-3 cells [3], the CD86 surface expression result is on record as “significantly up-regulated”. The “frequency of CD86-positive cells” value in the series with MUTZ-3 cells [3] (one representative experiment out of three, Figure 2A) worked out at 60.4%.

On to `Sc1nc2ccccc2s1` [2-Mercaptobenzothiazole], for which the “PCA grouping, each individual stimulation” value in the series on MUTZ-3 cells [1] (setting [4]) is on record as “group together, separate from the negative group”. Also, the concentration in solution in “physchem” (solubility) came to 250 µM (≈ 41.8 µg/mL). Also, in the series with mice (setting [6]), the Potency result was “Moderate [46]”. In addition, the CD86 surface expression result in the series on MUTZ-3 cells [3] was “significantly up-regulated”.

For `Oc1cccc(O)c1` [Resorcinol], the “PCA grouping, sensitizing vs. non-sensitizing chemicals” value in the series with MUTZ-3 cells [1] (setting [7]) is given as “grouped together with the control group”. In addition, the “PCA grouping, each individual stimulation” value with MUTZ-3 cells [1] (setting [4]) was “group together, separate from the negative group”. Moreover, the Potency entry in the series on mice (setting [6]) was “Moderate [48]”. In addition, in the series on MUTZ-3 cells [3], the CD86 surface expression entry was “significantly up-regulated”.
